Values of other authors as cited in patent publication US11629364B2, “Methods for synthesizing anticoagulant polysaccharides” (OPTIMVIA, LLC, priority 2019, dated 2023).

Conditions: pH 8.0

In the case of `Nc1ncnc2c1ncn2[C@@H]1O[C@H](COP(=O)(O)OS(=O)(=O)O)[C@@H](OP(=O)(O)O)[C@H]1O` [PAPS, 3′-phosphoadenosine 5′-phosphosulfate], the “half-life of PAPS” value is given as “about 20 hours”.
